Test results taken from publication PMC8262356, “SLC26A6-selective inhibitor identified in a small-molecule screen blocks fluid absorption in small intestine” (JCI Insight, 2021).

Legend:
[1] = test system: mouse ileal closed loops; assay: Closed ileal loop fluid absorption; assay type: in vivo
Procedure: For fluid absorption studies in small intestine, mice were given free access to 5% dextrose in water but not solid food for 24 hours before experiments. Closed midjejunal and ileal loops were prepared and isolated as described previously ([29]). Mice were anesthetized with isoflurane, and body temperature was maintained during surgery at 36°C–38°C using a heating pad. A small abdominal incision was made to expose small intestine for isolation of 3–4 closed small intestinal loops (jejunum or ileum, length 2–3 cm) with sutures. Loops were injected with 100 μL PBS (pH 7.4, 137 mM NaCl, 2.7 mM KCl, 8 mM Na2HPO4, 1.8 mM KH2PO4, 1 mM CaCl2, 0.5 mM MgCl2) containing 30 μM PAT1inh-B01, 10 μM DRAinh-A270, or 10 μM tenapanor (MedChemExpress) (or vehicle, 0.1% DMSO in PBS). In some experiments, 30 μM PAT1inh-B01 and 10 μM DRAinh-A270 were used together. In some experiments to rule out effects of sodium-dependent phosphate transport, the loop lumen contained HEPES-buffered saline (pH 7.4, 137 mM NaCl, 4.5 mM KCl, 10 mM HEPES, 1 mM CaCl2, 0.5 mM MgCl2). The abdominal incision was closed with sutures, and mice were allowed to recover from anesthesia. Intestinal loops were removed at 0 and 30 minutes (in separate mice), and loop length and weight were measured to quantify fluid absorption. In parallel experiments, CF mice were used and loop studies were done as described above. In some experiments, loop fluid was emptied with a syringe, and pH was measured immediately using AB15 pH meter after brief centrifugation at 2000 g for 5 minutes at 4°C.

[2] = test system: FRT cells; assay: Cytotoxicity, Alamar Blue assay; assay type: cell-based, rat; conditions: 10 μM, 48 h
Procedure: FRT cells were plated in black-walled, clear-bottom tissue culture plates at a density of 20,000 cells/well. After 24 hours in culture, cells were incubated with 10 μM PAT1inh-B01, 0.1% DMSO (vehicle control), or 20 % DMSO (positive control) for 48 hours for assay of cell viability using Alamar Blue (Thermo Fischer Scientific) according to the manufacturer’s instructions.

[3] = biological target: T1, PAT1 (murine slc26a6) (Mus musculus, UniProt Q8CIW6); assay: PAT1-mediated Cl-/HCO3- exchange, cytoplasmic pH in BCECF-loaded FRT cells; assay type: cell-based; conditions: read-out: IC50, inhibition of Cl-/HCO3- exchange
T1 construct: host or cells: Fischer rat thyroid (FRT) cells, lentiviral transduction (pLVX-IRES-mCherry-slc26a6), clonal line FRT-YFP-slc26a6
T1 sequence (Q8CIW6 24-758 limits assumed): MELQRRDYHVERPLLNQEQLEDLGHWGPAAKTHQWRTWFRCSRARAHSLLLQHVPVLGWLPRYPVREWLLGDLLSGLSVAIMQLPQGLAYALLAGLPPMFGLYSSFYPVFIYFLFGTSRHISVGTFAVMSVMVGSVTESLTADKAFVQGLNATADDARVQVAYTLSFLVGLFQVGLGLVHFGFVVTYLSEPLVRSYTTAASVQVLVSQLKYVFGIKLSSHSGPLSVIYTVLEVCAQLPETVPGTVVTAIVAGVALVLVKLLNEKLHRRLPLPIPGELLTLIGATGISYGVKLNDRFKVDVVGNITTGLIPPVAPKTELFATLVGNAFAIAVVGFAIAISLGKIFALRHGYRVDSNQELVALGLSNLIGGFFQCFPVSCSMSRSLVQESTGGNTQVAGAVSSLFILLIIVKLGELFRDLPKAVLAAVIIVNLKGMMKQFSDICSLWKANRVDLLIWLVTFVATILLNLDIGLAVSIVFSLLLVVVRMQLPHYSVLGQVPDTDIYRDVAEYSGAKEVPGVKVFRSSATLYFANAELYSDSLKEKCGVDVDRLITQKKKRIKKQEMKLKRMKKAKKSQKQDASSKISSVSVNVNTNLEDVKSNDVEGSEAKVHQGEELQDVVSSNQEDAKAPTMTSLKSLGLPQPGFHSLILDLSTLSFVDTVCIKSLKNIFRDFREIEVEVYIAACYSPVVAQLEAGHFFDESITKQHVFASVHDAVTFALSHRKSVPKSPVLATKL
Procedure: As PAT1 functions as a general monovalent anion exchanger, PAT1inh-B01 inhibition was studied for different modes of anion exchange. […] To measure Cl^–/HCO3^– exchange, the time course of cytoplasmic pH was measured, using BCECF as a pH indicator, in response to a gluconate gradient to drive exchange of cytoplasmic Cl^– with extracellular HCO3^– producing cytoplasmic alkalinization (Figure 2B) as done before for DRA and pendrin ([7], [10], [11]).
YFP-based cellular assays of slc26a3, slc26a4, SLC26A9, and TMEM16A function were performed as described previously ([7]). Slc26a1 and slc26a2 assays were done in transfected HEK 293 cells (see Supplemental Methods for details). Niflumic acid was used as a positive control for SLC26A isoforms ([7]). For TMEM16A, the selective small-molecule inhibitor TMinh-23 was used as a positive control ([28]). The activities of ENaC, CFTR, and CaCC were determined using well-differentiated HBE cells as described previously ([13]). Cl^–/HCO3^– exchange was measured as described previously ([7], [10], [11]). Briefly, cell cytoplasm was labeled with the pH-sensitive fluorescent dye BCECF-AM (Invitrogen), and Cl^–/HCO3^– exchange was measured in response to addition of a gluconate-containing solution to drive exchange of cytoplasmic Cl^– for extracellular HCO3^–, producing cytoplasmic alkalinization.

Which “effect on ileal fluid absorption (loop weight-to-length ratio)” value ([1]; 30 μM luminal, 30 minutes, PBS) does the source give for `Cc1c(Br)c(C(F)(F)F)nn1CC(=O)N1CCc2nc3cc(-c4ccccc4)[nH]n3c(=O)c2C1` [PAT1inh-B01] here?
The value was “fully blocked”.

What about the “effect on increase of ileal loop fluid pH” value ([1]; 30 minutes after injection of PBS (pH 7.4), control pH greater than 8.0) of the same molecule?
The value was “prevented”.

And the “effect on ileal fluid absorption in absence of luminal phosphate” value ([1]; HEPES-buffered saline)?
Its value is “effectively blocked”.

And the “block of fluid absorption in ileal loops” value ([1]; ileal loops (abstract))?
Its value is over 80%.

And the “cytotoxicity (cell viability, Alamar Blue)” value [2]?
The value was “did not cause cytotoxicity”.

And the IC50 [3]?
Its IC50 is 290 nM.
